From the supplement of paper PMC11451515

Key:
Settings in all cases: 48 h
SEM cells [1] = test: AUC of viability dose-response curve (% viability x log10 dose units); higher = less sensitive
How it was run: (§1)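 Medium-adapted leukemia cells in 1536-well plates, at 500 or 1000 cells/well, were incubated for 48 h at 37°C with library compounds in DMSO at 11 threefold doses from 47 μM to 0.79 nM. CellTiter-Glo One luminescence normalised per plate to DMSO and cell-free wells was fitted with a four-parameter log-logistic model over log10 doses. Area under the curve was integrated from this fit by trapezoidal rule, with curves beyond full viability scaled and failed quality-control curves removed.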

P12-Ichikawa [2] = test: as above
How it was run: as §1

NOMO1 [3] = test: as above
How it was run: as §1

SEM cells [4] = test: cell viability relative to DMSO control; higher = less cytotoxic
How it was run: (§2)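 Cells were incubated for 48 h at 37°C before CellTiter-Glo One luminescence was read. The cells were NOMO1 or SEM (500 cells/well) or P12-Ichikawa (1000 cells/well) leukemia cells, adapted for at least four passages in each medium and seeded in 1536-well plates (5 μl). Dosing used library compounds in DMSO applied by pin over 11 threefold points, 47 μM to 0.79 nM. Viability is the per-plate percentage of DMSO wells, with cell-free wells as background.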

P12-Ichikawa [5] = test: as above
How it was run: as §2

NOMO1 [6] = test: as above
How it was run: as §2

CCOc1ccccc1N/N=C1/C(=O)N(c2nc(-c3ccccc3)cs2)N=C1C
AUC of viability dose-response curve
Settings	NOMO1 [3]	P12-Ichikawa [2]	SEM cells [1]
HPLM + 10% dialyzed FBS	428	444	368
RPMI 5 mM glucose + 10% FBS	447	467	371
RPMI 5 mM glucose + 10% dialyzed FBS	419	450	358

cell viability [%]
Settings	NOMO1 [6]	P12-Ichikawa [5]	SEM cells [4]
HPLM + 10% dialyzed FBS, 0.000781 µM	118	111	124
HPLM + 10% dialyzed FBS, 0.00234 µM	122	114	114
HPLM + 10% dialyzed FBS, 0.00702 µM	119	114	93
HPLM + 10% dialyzed FBS, 0.0211 µM	123	115	122
HPLM + 10% dialyzed FBS, 0.0632 µM	113	114	105
HPLM + 10% dialyzed FBS, 0.19 µM	117	108	99.2
HPLM + 10% dialyzed FBS, 0.569 µM	115	104	100
HPLM + 10% dialyzed FBS, 1.71 µM	108	101	86.4
HPLM + 10% dialyzed FBS, 5.12 µM	103	103	45.9
HPLM + 10% dialyzed FBS, 15.4 µM	57.5	86.4	8.56
HPLM + 10% dialyzed FBS, 46.1 µM	32.1	67	3.58
RPMI 5 mM glucose + 10% FBS, 0.000781 µM	109	115	103
RPMI 5 mM glucose + 10% FBS, 0.00234 µM	103	108	114
RPMI 5 mM glucose + 10% FBS, 0.00702 µM	104	108	102
RPMI 5 mM glucose + 10% FBS, 0.0211 µM	114	121	116
RPMI 5 mM glucose + 10% FBS, 0.0632 µM	97.3	116	144
RPMI 5 mM glucose + 10% FBS, 0.19 µM	109	120	110
RPMI 5 mM glucose + 10% FBS, 0.569 µM	101	112	111
RPMI 5 mM glucose + 10% FBS, 1.71 µM	97.3	106	70.7
RPMI 5 mM glucose + 10% FBS, 5.12 µM	97.8	114	70
RPMI 5 mM glucose + 10% FBS, 15.4 µM	77.1	98.9	9.65
RPMI 5 mM glucose + 10% FBS, 46.1 µM	56.1	97	2.74
RPMI 5 mM glucose + 10% dialyzed FBS, 0.000781 µM	109	113	114
RPMI 5 mM glucose + 10% dialyzed FBS, 0.00234 µM	106	118	106
RPMI 5 mM glucose + 10% dialyzed FBS, 0.00702 µM	103	110	101
RPMI 5 mM glucose + 10% dialyzed FBS, 0.0211 µM	122	116	115
RPMI 5 mM glucose + 10% dialyzed FBS, 0.0632 µM	118	113	106
RPMI 5 mM glucose + 10% dialyzed FBS, 0.19 µM	102	108	97.4
RPMI 5 mM glucose + 10% dialyzed FBS, 0.569 µM	104	109	81.7
RPMI 5 mM glucose + 10% dialyzed FBS, 1.71 µM	90.5	105	77.1
RPMI 5 mM glucose + 10% dialyzed FBS, 5.12 µM	90	106	59.4
RPMI 5 mM glucose + 10% dialyzed FBS, 15.4 µM	59.8	94.6	9.71
RPMI 5 mM glucose + 10% dialyzed FBS, 46.1 µM	39.7	94.6	3.01

CCn1c(C(=O)N(C2CC2)C2CC2)cc2c3c(ncn3C)c(Nc3cc(C)n(C)n3)nc21
AUC of viability dose-response curve
Settings	NOMO1 [3]	P12-Ichikawa [2]	SEM cells [1]
HPLM + 10% dialyzed FBS	472	466	454
RPMI 5 mM glucose + 10% FBS	473	473	446
RPMI 5 mM glucose + 10% dialyzed FBS	464	467	435

cell viability [%]
Settings	NOMO1 [6]	P12-Ichikawa [5]	SEM cells [4]
HPLM + 10% dialyzed FBS, 0.000781 µM	90.4	88.3	75.8
HPLM + 10% dialyzed FBS, 0.00234 µM	113	99.8	100
HPLM + 10% dialyzed FBS, 0.00702 µM	106	99.5	113
HPLM + 10% dialyzed FBS, 0.0211 µM	114	104	99.9
HPLM + 10% dialyzed FBS, 0.0632 µM	122	109	107
HPLM + 10% dialyzed FBS, 0.19 µM	115	117	101
HPLM + 10% dialyzed FBS, 0.569 µM	113	110	99.9
HPLM + 10% dialyzed FBS, 1.71 µM	105	108	106
HPLM + 10% dialyzed FBS, 5.12 µM	108	107	94.3
HPLM + 10% dialyzed FBS, 15.4 µM	119	107	78.8
HPLM + 10% dialyzed FBS, 46.1 µM	88.5	86.5	55.3
RPMI 5 mM glucose + 10% FBS, 0.000781 µM	86.7	92.7	71.3
RPMI 5 mM glucose + 10% FBS, 0.00234 µM	100	116	114
RPMI 5 mM glucose + 10% FBS, 0.00702 µM	93.9	108	119
RPMI 5 mM glucose + 10% FBS, 0.0211 µM	118	108	121
RPMI 5 mM glucose + 10% FBS, 0.0632 µM	117	118	119
RPMI 5 mM glucose + 10% FBS, 0.19 µM	103	107	123
RPMI 5 mM glucose + 10% FBS, 0.569 µM	114	111	110
RPMI 5 mM glucose + 10% FBS, 1.71 µM	102	110	106
RPMI 5 mM glucose + 10% FBS, 5.12 µM	102	105	93
RPMI 5 mM glucose + 10% FBS, 15.4 µM	111	112	91.3
RPMI 5 mM glucose + 10% FBS, 46.1 µM	84.4	91.7	26.7
RPMI 5 mM glucose + 10% dialyzed FBS, 0.000781 µM	84.1	90.4	75.7
RPMI 5 mM glucose + 10% dialyzed FBS, 0.00234 µM	104	100	109
RPMI 5 mM glucose + 10% dialyzed FBS, 0.00702 µM	105	97.6	117
RPMI 5 mM glucose + 10% dialyzed FBS, 0.0211 µM	94.7	96.4	107
RPMI 5 mM glucose + 10% dialyzed FBS, 0.0632 µM	116	102	104
RPMI 5 mM glucose + 10% dialyzed FBS, 0.19 µM	111	97.2	100
RPMI 5 mM glucose + 10% dialyzed FBS, 0.569 µM	115	98	102
RPMI 5 mM glucose + 10% dialyzed FBS, 1.71 µM	112	98.6	112
RPMI 5 mM glucose + 10% dialyzed FBS, 5.12 µM	110	102	82.8
RPMI 5 mM glucose + 10% dialyzed FBS, 15.4 µM	116	107	66.8
RPMI 5 mM glucose + 10% dialyzed FBS, 46.1 µM	98.6	87.6	34.1

N#Cc1c(N(CC(=O)[O-])CC(=O)[O-])sc(C(=O)[O-])c1CC(=O)[O-].O.O.O.O.O.O.O.[Sr+2].[Sr+2]
AUC of viability dose-response curve
Settings	NOMO1 [3]	P12-Ichikawa [2]	SEM cells [1]
HPLM + 10% dialyzed FBS	467	463	462
RPMI 5 mM glucose + 10% FBS	472	458	467
RPMI 5 mM glucose + 10% dialyzed FBS	472	456	449

cell viability [%]
Settings	HPLM + 10% dialyzed FBS	RPMI 5 mM glucose + 10% FBS	RPMI 5 mM glucose + 10% dialyzed FBS
NOMO1 [6], 0.000781 µM	113	–	–
NOMO1 [6], 0.00234 µM	123	–	–
NOMO1 [6], 0.00702 µM	150	–	–
NOMO1 [6], 0.0211 µM	130	–	–
NOMO1 [6], 0.0632 µM	137	–	–
NOMO1 [6], 0.19 µM	129	–	–
NOMO1 [6], 0.569 µM	148	–	–
NOMO1 [6], 1.71 µM	123	–	–
NOMO1 [6], 5.12 µM	138	–	–
NOMO1 [6], 15.4 µM	124	–	–
NOMO1 [6], 46.1 µM	112	–	–
SEM cells [4], 0.000781 µM	111	117	111
SEM cells [4], 0.00234 µM	113	124	107
SEM cells [4], 0.00702 µM	122	131	123
SEM cells [4], 0.0211 µM	111	138	121
SEM cells [4], 0.0632 µM	117	149	129
SEM cells [4], 0.19 µM	130	146	131
SEM cells [4], 0.569 µM	127	153	134
SEM cells [4], 1.71 µM	132	132	128
SEM cells [4], 5.12 µM	144	143	112
SEM cells [4], 15.4 µM	103	124	89.3
SEM cells [4], 46.1 µM	87.9	102	67.9
